Assay results taken from patent US20260137707A1, “METHODS OF MODULATING ATXN2 EXPRESSION” (University of Utah Research Foundation, priority 2022, published 2026).
Read-outs that look alike come from different tables or passages of the source.

Key:
H2, S2, and SC cells = assay: in vitro
Protocol: (§1) Compounds were plated at 2× concentrations in 25 μl in 384 well plates with each compound dose plated in triplicate. An equal volume of S2, H2, or SC cells (24,000 cells/well) suspended in phenol-red free Dulbecco's Modified Eagle Medium (DMEM) with 10% fetal bovine serum and 1× penicillin/streptomycin were added. Cells were grown 24 hrs then assayed first by using the CellTiter-Fluor reagent (20 μl) followed by the addition of Bright-Glo ([…]) luciferase assay, using a multimode plate reader (Beckman DT880). Values were reported as the mean±standard deviation (SD) with n=3. IC50s were determined by the Hill coefficient method using an online tool (https://www.aatbio.com/tools/ic50-calculator).
(§2) These 46 compounds were retested at 12 doses and a zero-compound dose, in multiplexed assays in 96-well plates using CellTiter-Fluor to determine cell viability, then Bright-Glo to determine luciferase expression. The values for H2 and S2 were used as replicates to calculate IC50s and to assess cell viability.
(§3) For CMV-luc and viability charts, the fitted lines are second-order polynomials. Means and SD are shown.

CMV-luc = assay: Secondary assays, Bright-Glo luciferase in SC cells; type: cell-based; details: minimum CMV-luc luciferase in SC cells over 12 doses
Protocol: as §1, §3

ATXN2-luc [1] = assay: Secondary assays, Bright-Glo luciferase in H2 and S2 cells; type: cell-based; details: for IC50: read-out: Mean IC50
Protocol: as §1, §2, §3

[2] = Secondary assays, CellTiter-Fluor viability; details: human
Protocol: as §1, §2, §3

ATXN2-luc [3] = assay: cells
ATXN2-luc [4] = details: H2 cells
ATXN2-luc [5] = assay: qHTS (NCGC LOPAC pilot and primary), Steady-Glo luciferase, 1536-well; type: cell-based
Protocol: 4 μl of S2 cell suspension in phenol-red free DMEM was dispensed into wells of 1536-well assay plates. […] Next, SteadyGlo luciferase substrate detection reagent (3 μl) was added to each well and incubated for an additional 5 minutes at room temperature. Luminescence was then measured on the ViewLux imager equipped with clear filters using a 2 sec exposure. All screening operations were performed on a fully integrated robotic system (Kalypsys) containing one RX-130 and two RX-90 anthropomorphic robotic arms (Staubli). Vehicle-only plates, with DMSO being pin-transferred to columns 5-48, were inserted uniformly at the beginning and the end of each library in order to monitor and record any shifts in assay performance.
Screening to optimize the assay in 1536-well format was conducted at the NCGC laboratory using S2 cells. […] Cytotoxicity was determined using a multiplexed viability assay (CellTiter-Fluor). […] Cells were plated 1000 cells/well in 1536 well plates. Plates were assayed for ATXN2-luc expression (Steady-Glo) and compound effect on cell abundance (CellTiter-Fluor), with increases shown for each well indicated by red, and decreases indicated by blue.
A fluorescence-based viability assay using GF-AFC substrate was used to determine compound effect on cell viability and Steady-Glo was used to measure luciferase in a multiplexed assay.

[6] = ATXN2-luc, Bright-Glo, H2 and S2 values used as replicates, 12 doses, 96-well plates
[7] = minimum ATXN2-luc luciferase over 12 doses, H2 and S2 cells
[8] = minimum cell viability, CellTiter-Fluor, over 12 doses

S=C(NCCCN1CCOCC1)N1CCN(c2nc(-c3ccccc3)cs2)CC1 [MLS000706289]
min viability (H2, S2, and SC cells): 89.11%
min SC luc (CMV-luc): 79.3%
IC50 (ATXN2-luc [1]; [6]): 6850 nM
min ATXN2-luc (ATXN2-luc [1]; [7]): 61.65%

C[C@@]12OC(=O)[C@]1([C@@H](O)[C@@H]1C=CCCC1)NC(=O)[C@@H]2CCCl [Marizomib]
viability at 24 h [2]: 76%
min SC luc (CMV-luc): 96.88%
min ATXN2-luc (ATXN2-luc [1]; [7]): 16.5%
IC50 (ATXN2-luc [1]): 1110 nM

N[C@@H](Cc1ccc(N(CCCl)CCCl)cc1)C(=O)O [Melphalan]
viability at 24 h [2]: 89.3%
min SC luc (CMV-luc): 79.97%
min ATXN2-luc (ATXN2-luc [1]; [7]): 44.84%
IC50 (ATXN2-luc [1]): 24100 nM

C[C@@H]1O[C@@H](O[C@H]2C[C@@H](O)[C@]3(CO)[C@H]4[C@H](O)C[C@]5(C)[C@@H](C6=CC(=O)OC6)CC[C@]5(O)[C@@H]4CC[C@]3(O)C2)[C@H](O)[C@H](O)[C@H]1O [OUABAIN]
viability [2]: 74.3%
activity at 1 µM (ATXN2-luc [3]; read-out: Luc at 1 μm): 14%
activity at 10 µM (ATXN2-luc [3]; read-out: Luc at 10 μm): 12%
SD from Mean (ATXN2-luc [4]; Table 1, 24 hrs, single 10 μM dose, Z-score of luciferase): −3.832 SD
SD from Mean (ATXN2-luc [4]; Table 5S, pilot screen, 10 μM): −3.832 SD

CN(c1ccccc1CNc1nc(Nc2ccc3c(c2)CC(=O)N3)ncc1C(F)(F)F)S(C)(=O)=O [PF-431396]
min viability (H2, S2, and SC cells): 64.59%
min SC luc (CMV-luc): 98.3%
IC50 (ATXN2-luc [1]; [6]): 2320 nM
min ATXN2-luc (ATXN2-luc [1]; [7]): 15.51%

Nc1ncnc2c1c(-c1cnc3[nH]ccc3c1)nn2C1CCCC1 [PP121]
min viability (H2, S2, and SC cells; [8]): 50.39%
min SC luc (CMV-luc): 78.1%
IC50 (ATXN2-luc [1]; [6]): 4160 nM
min ATXN2-luc (ATXN2-luc [1]; [7]): 27.48%

Cc1cccc(Nc2nc(N[C@@H]3CCCC[C@@H]3N)ncc2C(N)=O)c1 [PRT-060318]
min viability (H2, S2, and SC cells): 94.62%
min SC luc (CMV-luc): 86.82%
IC50 (ATXN2-luc [1]; [6]): 25400 nM
min ATXN2-luc (ATXN2-luc [1]; [7]): 64.25%

CNC(=O)c1cc(Oc2ccc(NC(=O)Nc3cc(C(C)(C)C)nn3-c3ccc4ncccc4c3)c(F)c2)ccn1 [Rebastinib (DCC-2036)]
min viability (H2, S2, and SC cells): 56.58%
min SC luc (CMV-luc): 60.58%
IC50 (ATXN2-luc [1]; [6]): 3730 nM
min ATXN2-luc (ATXN2-luc [1]; [7]): 27.07%

C=CCNc1c(O)cc2c(O)c1C[C@@H](C)C[C@H](OC)[C@H](O)[C@@H](C)/C=C(\C)[C@H](OC(N)=O)[C@@H](OC)/C=C\C=C(/C)C(=O)N2 [Retaspimycin (IPI-504)]
viability [2]: 91.5%
min SC luc (CMV-luc): 94.99%
IC50 (ATXN2-luc [1]; [6]): 546 nM
min ATXN2-luc (ATXN2-luc [1]; [7]): 24.21%

CC[C@@H](CO)Nc1nc(NCc2ccccc2)c2ncn(C(C)C)c2n1 [Roscovitine]
viability [2]: 77.8%
min SC luc (CMV-luc): 82.45%
min ATXN2-luc (ATXN2-luc [1]): 57.32%

CC1(C)CC(=O)c2c(C(F)(F)F)nn(-c3ccc(C(N)=O)c(N[C@H]4CC[C@H](O)CC4)c3)c2C1 [SNX-2112]
viability at 24 h [2]: 83.3%
min SC luc (CMV-luc): 82.28%
IC50 (ATXN2-luc [1]; [6]): 177 nM
min ATXN2-luc (ATXN2-luc [1]; [7]): 15.51%

CC1(C)CC(=O)c2c(C(F)(F)F)nn(-c3ccc(C(N)=O)c(N[C@H]4CC[C@H](OC(=O)CN)CC4)c3)c2C1 [SNX-5422]
viability at 24 h [2]: 87.1%
min SC luc (CMV-luc): 69.78%
IC50 (ATXN2-luc [1]; [6]): 88 nM
min ATXN2-luc (ATXN2-luc [1]; [7]): 19.97%

Cc1ccc(-c2ncn(-c3ccc(Nc4nccc(-c5cccc(N6CCOCC6)c5)n4)cc3)n2)cn1 [SR-3306]
min viability (H2, S2, and SC cells; [8]): 65.37%
min SC luc (CMV-luc): 82.9%
IC50 (ATXN2-luc [1]; [6]): 1300 nM
min ATXN2-luc (ATXN2-luc [1]; [7]): 15.65%

O=C(O)c1ccc2c(c1)nc(Nc1cccc(Cl)c1)c1ccncc12 [Silmitasertib]
viability at 24 h [2]: 77.6%
min SC luc (CMV-luc): 93.78%
IC50 (ATXN2-luc [1]; [6]): 10200 nM
min ATXN2-luc (ATXN2-luc [1]; [7]): 45.64%

CN[C@H]1CN(c2ccc3c(=O)c(C(=O)O)cn(-c4nccs4)c3n2)C[C@@H]1OC [Vosaroxin]
viability at 24 h [2]: 71.6%
min SC luc (CMV-luc): 64.01%
IC50 (ATXN2-luc [1]; [6]): 488 nM
min ATXN2-luc (ATXN2-luc [1]; [7]): 15.1%

Naltrindole hydrochloride
Curve Class (ATXN2-luc [5]; S2 cells, LOPAC1280 library, 24 hrs): −2.2

Protriptyline hydrochloride
Curve Class (ATXN2-luc [5]): −2.2
